{"source": "patent US20240174663A1", "about": "“PYRIMIDINE OR PYRIDINE DERIVATIVES USEFUL AS HCN2 MODULATORS” (King's College London, priority 2021, published 2024)", "key": {"HCN4": {"molecular_target": "T1, HCN4 (Homo sapiens, UniProt Q9Y3Q4)", "T1 sequence (Q9Y3Q4 1-1203)": "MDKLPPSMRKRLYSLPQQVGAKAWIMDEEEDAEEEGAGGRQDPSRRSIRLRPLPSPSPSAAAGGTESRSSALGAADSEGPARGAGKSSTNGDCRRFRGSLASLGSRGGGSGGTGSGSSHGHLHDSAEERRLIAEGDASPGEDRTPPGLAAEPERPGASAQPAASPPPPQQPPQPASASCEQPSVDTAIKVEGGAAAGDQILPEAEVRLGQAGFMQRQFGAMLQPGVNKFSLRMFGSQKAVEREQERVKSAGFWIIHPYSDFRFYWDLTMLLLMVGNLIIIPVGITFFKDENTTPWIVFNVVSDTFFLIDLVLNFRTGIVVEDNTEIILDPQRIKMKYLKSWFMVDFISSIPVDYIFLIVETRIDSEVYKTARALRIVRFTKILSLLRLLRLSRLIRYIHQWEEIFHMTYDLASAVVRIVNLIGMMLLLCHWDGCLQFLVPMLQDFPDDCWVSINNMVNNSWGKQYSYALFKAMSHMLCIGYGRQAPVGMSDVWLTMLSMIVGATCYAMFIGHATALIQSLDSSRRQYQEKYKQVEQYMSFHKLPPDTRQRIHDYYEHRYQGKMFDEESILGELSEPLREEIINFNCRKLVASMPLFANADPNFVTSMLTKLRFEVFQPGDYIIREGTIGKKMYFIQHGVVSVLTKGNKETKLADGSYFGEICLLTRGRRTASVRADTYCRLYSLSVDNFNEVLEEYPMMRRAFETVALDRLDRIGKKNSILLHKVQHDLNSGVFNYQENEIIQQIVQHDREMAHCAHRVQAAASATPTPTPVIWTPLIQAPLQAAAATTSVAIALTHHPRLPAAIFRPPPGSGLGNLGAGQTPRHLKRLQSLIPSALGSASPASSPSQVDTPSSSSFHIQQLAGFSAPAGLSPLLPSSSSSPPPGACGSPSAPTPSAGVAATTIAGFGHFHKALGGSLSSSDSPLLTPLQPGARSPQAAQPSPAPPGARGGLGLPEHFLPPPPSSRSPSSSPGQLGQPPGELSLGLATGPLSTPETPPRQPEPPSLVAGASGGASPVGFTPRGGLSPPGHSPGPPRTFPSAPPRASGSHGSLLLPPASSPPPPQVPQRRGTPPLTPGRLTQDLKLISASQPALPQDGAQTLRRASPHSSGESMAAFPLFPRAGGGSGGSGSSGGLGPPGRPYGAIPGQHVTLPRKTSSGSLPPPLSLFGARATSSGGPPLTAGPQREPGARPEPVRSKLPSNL", "test": "HCN4 assay using PatchXpress 7000A (PX protocol, Example 25)", "format": "cell-based", "conditions": "room temperature", "procedure": "Example 25: Assay for HCN1 HCN2 and HCN4 Using PatchXpress 7000A\nSolutions for recording HCN currents were:\nThe peak inward current measured at the end of the pulse to −110 mV (HCN1 and HCN2) or −130 mV (HCN4) was measured and any leak current subtracted to calculate the HCN current. The HCN current amplitude was measured after each control or compound addition and normalized to the control amplitude (Control A).\nAll experiments were performed at room temperature (approximately 22° C.).\nEach test compound concentration was applied to the cell for seven (7) minutes, at which point the next cumulative concentration was applied."}, "WT Black6 strain mice": {"test_system": "WT Black6 strain mice", "test": "Mouse neuropathic pain model (partial sciatic nerve ligation), von Frey filament", "format": "in vivo", "procedure": "The model used was analogous to the model described in Seltzer Z, Dubner […] novel behavioural model of neuropathic pain disorders produced in rats by partial sciatic nerve injury, Pain 43: 205-218). […] Sci Transl Med 9: eaam6072. […] The mechanical pain threshold was measured by manual von Frey filament applied to the hind paw on the operated side, using the “up-down” method."}, "[1]": {"test_system": "guinea pigs with salicylate-induced tinnitus", "test": "Short-term (salicylate) tinnitus model, gap induced inhibition of the acoustic startle (GPIAS) test", "format": "in vivo, guinea pig", "conditions": "5 mg/kg s.c.; salicylate 350 mg/kg i.p., 2 h", "from_the_text": "(§1) Tinnitus in guinea pigs was monitored using the gap induced inhibition of the acoustic startle (GPIAS) test (see FIG. 4). GPIAS is reduced when tinnitus was present; see Berger, J. I. et al. Effects of the cannabinoid CB1 agonist ACEA on salicylate ototoxicity, hyperacusis and tinnitus in guinea pigs. Hearing research, (2017), and Coomber, B. et al. Neural changes accompanying tinnitus following unilateral acoustic trauma in the guinea pig. Eur J Neurosci 40, 2427-2441, (2014).\nIn FIG. 4, sound stimulus (above) and corresponding pinna reflex (below) are shown in freely moving guinea pigs. Stimuli with no gap and gap are presented in a randomised order. Traces contaminated by movement (the upper trace in “no gap”) were removed before analysis.\nTinnitus was induced within 1-2 hours in humans by high doses of salicylate. A similar short-term tinnitus model was implemented in guinea pigs by i.p. injection of salicylate. In all animals, salicylate caused behavioural inhibition of GPIAS (see bar 2 in FIG. 5).\nSalicylate (350 mg/kg, i.p.) impairs behavioural gap detection 2 h after salicylate administration (see bar 2 in of FIG. 5). Gap detection was restored by blocking HCN channels with ivabradine (5 mg/kg, s.c.)."}, "[2]": {"test_system": "guinea pigs with noise-exposure induced tinnitus", "test": "Noise-exposure tinnitus model, GPIAS test", "format": "in vivo, guinea pig", "from_the_text": "as §1\nThe noise-exposure model is more clinically relevant than the salicylate model, as it parallels a common cause of tinnitus in humans. A second important point is that it is long-term, while tinnitus induced by salicylate is rapidly reversed following salicylate exposure.\nGPIAS returns following drug wash-out (see bar D in FIG. 6)."}, "[3]": {"test": "Evaluation of CNS penetration: ivabradine in plasma, brain and auditory nerve", "format": "in vivo", "conditions": "guinea pig, brain (somatosensory cortex) / plasma, other: injection; 30 min after injection; read-out: amount detected in brain, % of plasma level", "from_the_text": "Ratios of total concentrations in preliminary experiments for plasma:brain:auditory nerve were 1:0.12:0.57 (n=2). The small amount (12% of plasma level) detected in brain is largely accounted for by the presence of ivabradine within the vascular supply of the brain. […] Pain 155, 1708-1719, (2014)."}, "[4]": {"test_system": "mice (hearing thresholds)", "format": "in vivo", "conditions": "adult mice, tone pulses 3 kHz to 42 kHz; 20 mg/kg ip"}, "[5]": {"test_system": "mouse models of neuropathic pain", "conditions": "nerve injury, cancer chemotherapy and diabetic neuropathy models; cited from earlier work"}, "[6]": {"test_system": "mouse model of diabetic neuropathy", "conditions": "in vivo; cited from earlier work"}}, "note": "Structures can show the parent of a compound that is named as a salt."}
{"molecule": "Cc1ccc(C#N)nc1C[C@H](N)c1ncccc1-c1noc2ccccc12", "note": "[Example 4, (S)-6-{2-Amino-2-[3-(benzo[d]isoxazol-3-yl)pyridine-2-yl]ethyl}-5-methylpyridin-2-carbonitrile hydrochloride]", "values": [{"measurement": "IC50", "setting": "HCN4", "result": 5.2, "unit": "µM"}, {"measurement": "mechanical analgesic effect (mechanical pain threshold, von Frey)", "setting": "WT Black6 strain mice; 1 mg/kg i.p., day 5 after partial sciatic nerve ligation, operated hind paw", "result": "full analgesia"}, {"measurement": "hyperalgesia in contralateral (unoperated) hind paw", "setting": "WT Black6 strain mice; i.p., mice after partial sciatic nerve ligation", "result": "No hyperalgesia observed"}]}
{"molecule": "COc1cc2c(cc1OC)CC(=O)N(CCCN(C)C[C@H]1Cc3cc(OC)c(OC)cc31)CC2", "note": "[ivabradine]", "values": [{"measurement": "behavioural gap detection (GPIAS) after salicylate", "setting": "[1]", "result": "restored"}, {"measurement": "reduced GPIAS following noise exposure", "setting": "[2]; 5 mg/kg s.c., unilateral noise exposure 110 dB, 1 h, 8 weeks prior", "result": "rapidly and completely reversed"}, {"measurement": "effect on GPIAS in noise-exposed guinea pigs showing no behavioural evidence of tinnitus", "setting": "[2]; control experiments, n=3", "result": "without effect"}, {"measurement": "Kp at 30 min", "setting": "[3]", "result": 0.12}, {"measurement": "ABR threshold or latency versus untreated", "setting": "[4]", "result": "no significant difference in ABR threshold or latency"}, {"measurement": "analgesia in mouse models of neuropathic pain", "setting": "[5]", "result": "effective analgesic"}, {"measurement": "analgesia in mouse model of diabetic neuropathy", "setting": "[6]", "result": "complete analgesia"}]}
